Source: ChEMBL document CHEMBL3301461, “MMV Malaria Box thermal shift screening” (2015)

tested on: Plasmodium falciparum; experiment: (§1) MMV: Thermal shift assay for identifying inhibitors; conditions: 3D7

Compared with CC1CCCCN1CCCNC(=O)c1ccc2c(c1)sc1nc(-c3ccc(F)cc3)cn12 (centres undefined), CC1CCN(Cc2ccc(NC(=O)c3cc4ccc5cccnc5c4[nH]3)cc2)CC1 is lower in ΔTm: 2.4 °C for the first, 2.2 °C for the second.

Compared with COc1ccc(-c2cc(=O)oc3c4c(ccc23)OCN(Cc2ccc(F)cc2)C4)cc1, COc1cccc(C(=O)Nc2ccc(-c3nc4ccccc4[nH]3)cc2)c1 is higher in ΔTm: 2.2 °C for the first, 2.5 °C for the second.

Going from Cc1cccc(-n2ncc3c(O)nc(-n4nc(C)cc4NC(=O)c4cc5ccccc5o4)nc32)c1 to COc1cc(OC)cc(C(=O)Nc2ccc(-c3nc4ccccc4[nH]3)cc2)c1, the ΔTm falls from 12.7 °C to 2.6 °C.

Going from CCOc1cccc(C(=O)Nc2ccc(-c3nc4ccccc4[nH]3)cc2)c1 to CC(C)(C)C(=O)Nc1ccc(C(=O)Nc2cccc(-c3nc4ccccc4[nH]3)c2)cc1, the ΔTm falls from 2.9 °C to 2.3 °C.

Going from FC(F)(F)c1cccc(Nc2nc(-c3ccccc3)nc3ncccc23)c1 to FC(F)(F)c1cccc(Nc2nc3ccccc3nc2Nc2cccc(C(F)(F)F)c2)c1, the ΔTm falls from 3.7 °C to 2.5 °C.

Going from Cc1ccc(NC(=O)Nc2cccc(Cl)c2)cc1F to O=C(Nc1ccc(Br)cc1)Nc1cccc(Cl)c1, the ΔTm rises from 2.4 °C to 3.6 °C.

Compared with CCOC(=O)c1cnc2ccc(Cl)cc2c1NCCCN(C)C, CCN(CC)CCNc1ncnc2c1[nH]c1ccc(Cl)cc12 is lower in ΔTm: 3.1 °C for the first, 2.3 °C for the second.

First: CCN(Cc1ccccc1)C1CCN(Cc2cc(Br)ccc2O)CC1
Second: O=c1cc(NC2CCN(CCCc3ccccc3)CC2)c2cc(Cl)ccc2o1
The ΔTm of the first is higher: 12.4 °C for the first, 3.1 °C for the second.

First: O=C(Nc1ccccc1O)c1ccc(Oc2cccc(C(=O)Nc3ccccc3O)c2)cc1
Second: COc1ccc(Nc2nc(NCc3ccccc3)c3ccccc3n2)cc1
The ΔTm of the first is lower: 2.2 °C for the first, 2.4 °C for the second.

First: COc1cccc(Nc2nc(NCCO)c3ccccc3n2)c1
Second: CCN(CC)CCCNc1nc(-c2ccc(Cl)cc2)nc2ccccc12
The ΔTm of the first is lower: 2 °C for the first, 4.1 °C for the second.

Compared with COc1cc2cc(C(=O)Nc3ccccc3)c(N)nc2cc1OC, COc1ccc(C=C2SC(=N)N(c3ccccc3OC)C2=O)cc1 is higher in ΔTm: 2.7 °C for the first, 5.4 °C for the second.

CCCN(CCC)CCCNC(=O)c1cc2c(-c3ccc(OC)c(OC)c3)nn(C)c2s1 and CCC(O)c1ccc(Br)cc1NC(=O)c1cccc(Cl)c1 (centres undefined) are the same in ΔTm: 2 °C for the first, 2 °C for the second.

First: Cc1sc2ncnc(Sc3nc4ccccc4[nH]3)c2c1C
Second: O=C(NC1CCN(Cc2ccccc2)CC1)c1cc(-c2ccncc2)nc2ccc(Cl)cc12
The ΔTm of the first is lower: 2.1 °C for the first, 3 °C for the second.

For COc1ccc2c(c1)OC(O)(C(F)(F)C(F)(F)F)CC2=O (centres undefined), the ΔTm was 7.5 °C.

tested on: Leishmania donovani; experiment: as §1; conditions: not given

First: COc1ccc(C(=O)NC(c2ccc(Cl)cc2Cl)c2cc(Cl)c3cccnc3c2O)cc1 (centres undefined)
Second: COc1cc(C(=O)Nc2ccc(-c3nc4ccccc4[nH]3)cc2)cc(OC)c1OC
The ΔTm of the first is lower: 2.4 °C for the first, 4.8 °C for the second.

Going from Cc1cc(C)cc(Nc2cc(C)nc3nc(C(F)(F)F)nn23)c1 to Cc1ccc(Nc2nc(N)c3ccccc3n2)cc1Cl, the ΔTm rises from 2.2 °C to 4 °C.

Going from O=C(NC1CCN(Cc2ccccc2)CC1)c1cc(-c2cccnc2)nc2ccc(Cl)cc12 to CCOc1ccc(C2N(C)c3ccccc3N2C)cc1, the ΔTm rises from 2.4 °C to 2.5 °C.

Work on CCOc1cc2c(cc1OCC)C(c1cc(C)c(O)c(C)c1)NCC2 (centres undefined) yielded a ΔTm of 3.3 °C.
